Assay [1] deals with 6×HIS-tankyrase 2 (946-1162) (Homo sapiens (Human), UniProt Q9H2K2). The assay is described as follows: Tankyrase 2 biochemical assay (AlphaLisa, PARsylation). To be noted: 250 nM NAD; read-out: TNKS2 IC50.
In assay [2] the target is 6×HIS-tankyrase1 (1091-1325) (Homo sapiens (Human), UniProt O95271). The assay is described as follows: Tankyrase 1 biochemical assay (AlphaLisa, PARsylation). To be noted: read-out: TNKS1 IC50.
In a further assay the target is PARP1 (Homo sapiens (Human), UniProt P09874). The assay is described as follows: PARP1 biochemical assay (Trevigen kit). The source says: PARP1 biochemical assay was purchased as a kit from Trevigen (cat.#4676-096-K) and used per manufacturers recommendations.
Sequence of PARP1 (P09874 whole entry): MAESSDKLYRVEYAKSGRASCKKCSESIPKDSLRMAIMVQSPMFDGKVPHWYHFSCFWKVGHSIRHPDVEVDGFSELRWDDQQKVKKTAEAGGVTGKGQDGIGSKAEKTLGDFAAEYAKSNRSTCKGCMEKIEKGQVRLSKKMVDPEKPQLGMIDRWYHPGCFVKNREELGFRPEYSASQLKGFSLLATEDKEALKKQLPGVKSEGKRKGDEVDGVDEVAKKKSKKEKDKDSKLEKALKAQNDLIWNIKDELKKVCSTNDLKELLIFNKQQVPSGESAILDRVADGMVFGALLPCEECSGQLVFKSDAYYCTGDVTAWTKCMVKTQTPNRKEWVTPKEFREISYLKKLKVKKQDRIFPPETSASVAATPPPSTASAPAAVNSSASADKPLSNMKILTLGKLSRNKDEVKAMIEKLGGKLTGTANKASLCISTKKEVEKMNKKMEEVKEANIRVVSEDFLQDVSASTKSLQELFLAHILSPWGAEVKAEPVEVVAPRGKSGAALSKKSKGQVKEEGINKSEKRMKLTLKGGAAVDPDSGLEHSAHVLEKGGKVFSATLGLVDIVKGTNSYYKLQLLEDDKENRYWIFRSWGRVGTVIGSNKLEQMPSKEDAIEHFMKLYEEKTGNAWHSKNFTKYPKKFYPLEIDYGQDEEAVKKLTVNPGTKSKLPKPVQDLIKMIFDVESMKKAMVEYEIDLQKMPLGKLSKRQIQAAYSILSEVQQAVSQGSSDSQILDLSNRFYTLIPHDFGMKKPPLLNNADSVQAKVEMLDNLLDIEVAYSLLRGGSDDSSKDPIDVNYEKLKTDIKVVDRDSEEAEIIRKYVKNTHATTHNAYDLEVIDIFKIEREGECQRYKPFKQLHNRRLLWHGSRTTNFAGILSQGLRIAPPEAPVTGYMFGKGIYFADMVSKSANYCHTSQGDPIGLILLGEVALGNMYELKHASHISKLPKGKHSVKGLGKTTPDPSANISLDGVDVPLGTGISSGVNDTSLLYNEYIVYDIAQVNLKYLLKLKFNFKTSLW
Assay [3] has as its system total β-catenin in SW480 colorectal cells. The assay is described as follows: Total β-catenin MSD 96-well plate assay for SW480 cells. The following applies: Homo sapiens, SW480, read-out: SW480-Total beta-catenin (TBC) IC50 IP.
The test system of assay [4] is Axin2 accumulation in SW480 cells. The assay is described as follows: Axin2 384 immunofluorescence assay. The assay is classed as cell-based. To be noted: Homo sapiens, read-out: Axin2 384 IF EC50.
In the next assay the target is PARP2 (Homo sapiens (Human), UniProt Q9UGN5). The assay is described as follows: PARP2 biochemical assay (BPS kit).
Sequence of PARP2 (Q9UGN5 whole entry): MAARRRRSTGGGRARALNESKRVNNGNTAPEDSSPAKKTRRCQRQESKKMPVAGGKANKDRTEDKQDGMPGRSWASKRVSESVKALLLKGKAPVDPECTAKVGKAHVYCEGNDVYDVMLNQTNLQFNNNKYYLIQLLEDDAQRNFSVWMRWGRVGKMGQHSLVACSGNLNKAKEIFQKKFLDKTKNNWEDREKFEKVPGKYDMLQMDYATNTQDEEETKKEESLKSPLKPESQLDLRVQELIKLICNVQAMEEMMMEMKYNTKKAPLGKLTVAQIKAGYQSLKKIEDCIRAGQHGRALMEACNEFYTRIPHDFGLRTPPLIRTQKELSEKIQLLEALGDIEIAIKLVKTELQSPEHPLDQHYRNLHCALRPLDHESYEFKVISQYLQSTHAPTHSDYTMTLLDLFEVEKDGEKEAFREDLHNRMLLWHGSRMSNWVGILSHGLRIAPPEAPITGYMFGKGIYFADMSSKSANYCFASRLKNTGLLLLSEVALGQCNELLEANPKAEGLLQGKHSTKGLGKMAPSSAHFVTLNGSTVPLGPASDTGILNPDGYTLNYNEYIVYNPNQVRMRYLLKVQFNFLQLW

The text below walks through data of patent publication US9505749B2, “Quinazolinone compounds and derivatives thereof” (AMGEN INC., priority 2012, dated 2016).

The IC50 is the midpoint of a concentration-inhibition curve. As usually defined, the EC50 is the concentration at which the effect is half-maximal.

Like-named read-outs stand apart in the source and are kept apart here.

Sequence of 6×HIS-tankyrase 2 (946-1162) (Q9H2K2 946-1162): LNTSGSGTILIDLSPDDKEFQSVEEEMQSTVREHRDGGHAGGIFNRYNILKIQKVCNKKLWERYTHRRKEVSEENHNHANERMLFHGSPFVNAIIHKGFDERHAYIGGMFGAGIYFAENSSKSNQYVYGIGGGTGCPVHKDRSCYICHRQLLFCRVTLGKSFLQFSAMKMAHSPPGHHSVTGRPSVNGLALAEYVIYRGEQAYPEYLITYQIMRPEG
Sequence of 6×HIS-tankyrase1 (1091-1325) (O95271 1091-1325): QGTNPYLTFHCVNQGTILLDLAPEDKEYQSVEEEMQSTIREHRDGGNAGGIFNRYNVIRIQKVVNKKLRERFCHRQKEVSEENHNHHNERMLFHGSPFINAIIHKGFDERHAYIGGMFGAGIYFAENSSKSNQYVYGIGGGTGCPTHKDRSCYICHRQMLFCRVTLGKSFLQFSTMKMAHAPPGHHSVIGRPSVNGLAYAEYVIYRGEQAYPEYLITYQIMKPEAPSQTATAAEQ

Regarding `O=C(CCCc1nc2ccccc2c(=O)[nH]1)N1CCC(c2n[nH]c3ccccc23)CC1` [Example 48, 2-(4-(4-(1H-indazol-3-yl)-1-piperidinyl)-4-oxobutyl)-4(3H)-quinazolinone trifluoroacetic acid], the IC50 in assay [1] was 0.596 nM; in assay [2] (400 nM NAD, 60 minutes at RT), 5.15 nM; against PARP1 it was 1980 nM; in assay [3] it was 111 nM; at PARP2, 1350 nM. For the same molecule, the EC50 in assay [4] (SW480 cells, 24 hours) is 417 nM.
As to `O=C(CSc1nc2ccccc2c(=O)[nH]1)N[C@H]1CC[C@H](n2c(=O)[nH]c3ccc(Cl)cc32)CC1` [Example 102, N-((1r,4r)-4-(6-chloro-2-oxo-2,3-dihydro-1H-benzo[d]imidazol-1-yl)cyclohexyl)-2-((4-oxo-3,4-dihydroquinazolin-2-yl)thio)acetamide], the IC50 is 0.458 nM in assay [1]; 0.118 nM in assay [2] (400 nM NAD, 60 minutes at RT); above 85000 nM at PARP1; 55.4 nM in assay [3]; 1650 nM against PARP2. Moreover, in assay [4] (SW480 cells, 24 hours), the EC50 stood at 38.1 nM.
As for `O=C(CCCc1nc2ccccc2c(=O)[nH]1)N[C@H]1CC[C@H](Oc2ccncc2)CC1` [Example 70, 4-(4-oxo-3,4-dihydro-2-quinazolinyl)-N-(trans-4-(4-pyridinyloxyl)cyclohexyl)butanamide], the half-maximal inhibitory concentration (IC50) was 0.826 nM in assay [1]; 5.1 nM in assay [2] (400 nM NAD, 60 minutes at RT); 723 nM on PARP1; 252 nM in assay [3]; 1810 nM on PARP2. Further, in assay [4] (SW480 cells, 24 hours), the EC50 came to 191 nM.
On to `O=C(CCCc1nc2ccccc2c(=O)[nH]1)N[C@H]1CC[C@H](Oc2ccccn2)CC1` [Example 56, 4-(4-oxo-3,4-dihydro-2-quinazolinyl)-N-(trans-4-(2-pyridinyloxyl)cyclohexyl)butanamide], for which the IC50 in assay [1] is 0.719 nM; in assay [2] (400 nM NAD, 60 minutes at RT) it was 2.51 nM; at PARP1, 5820 nM; in assay [3] it was 73.6 nM; against PARP2, 1100 nM. Also, in assay [4] (SW480 cells, 24 hours), the EC50 turned out to be 266 nM.
As for `O=C(CCCc1nc2ccccc2c(=O)[nH]1)N1CCC(n2c(=O)oc3ccccc32)CC1` [Example 44, 2-(4-oxo-4-(4-(2-oxo-1,3-benzoxazol-3(2H)-yl)-1-piperidinyl)butyl)-4(3H)-quinazolinone], the IC50 in assay [1] stood at 3.53 nM; in assay [2] (400 nM NAD, 60 minutes at RT), 8.97 nM; against PARP1 it was 7610 nM; in assay [3] it was 681 nM; against PARP2, 363 nM. Also, in assay [4] (SW480 cells, 24 hours), the EC50 amounted to 2930 nM.
On to `O=C(CCCc1nc2ccccc2c(=O)[nH]1)N1CCC(c2nnc(-c3ccccc3Cl)o2)CC1` [Example 16, 2-(4-(4-(5-(2-chlorophenyl)-1,3,4-oxadiazol-2-yl)-1-piperidinyl)-4-oxobutyl)-4(3H)-quinazolinone], for which the IC50 turned out to be 17.9 nM in assay [1]; 107 nM in assay [2] (400 nM NAD, 60 minutes at RT); 5070 nM at PARP1; 1190 nM in assay [3]; 560 nM against PARP2. Besides, the EC50 in assay [4] (SW480 cells, 24 hours) came out at 1900 nM.
Consider `N#Cc1ccc(-c2nnc(C3CCN(C(=O)CCCc4nc5ccccc5c(=O)[nH]4)CC3)o2)cc1` [Example 21, 4-(5-(1-(4-(4-oxo-3,4-dihydroquinazolin-2-yl)butanoyl)piperidin-4-yl)-1,3,4-oxadiazol-2-yl)benzonitrile], for which the half-maximal inhibitory concentration (IC50) was 4.89 nM in assay [1]; 17.1 nM in assay [2] (400 nM NAD, 60 minutes at RT); 2030 nM at PARP1; 154 nM in assay [3]; 1450 nM against PARP2. For the same molecule, in assay [4] (SW480 cells, 24 hours), the concentration for a half-maximal effect (EC50) is 242 nM.
On to `O=C(CCCc1nc2ccccc2c(=O)[nH]1)N1CCC(c2nnc(-c3ccc(F)c(Cl)c3)o2)CC1` [Example 25, 2-(4-(4-(5-(3-chloro-4-fluorophenyl)-1,3,4-oxadiazol-2-yl)piperidin-1-yl)-4-oxobutyl)quinazolin-4(3H)-one], for which the 50% inhibitory concentration (IC50) is 3.91 nM in assay [1]; 9.61 nM in assay [2] (400 nM NAD, 60 minutes at RT); 2300 nM on PARP1; 224 nM in assay [3]; 1360 nM against PARP2. Further, in assay [4] (SW480 cells, 24 hours), the EC50 worked out at 240 nM.
As to `O=C(CCCc1nc2ccccc2c(=O)[nH]1)N1CCC(N2C(=O)Cc3ccccc32)CC1` [Example 43, 2-(4-oxo-4-(4-(2-oxo-2,3-dihydro-1H-indol-1-yl)-1-piperidinyl)butyl)-4(3H)-quinazolinone], the IC50 was determined as 16.6 nM in assay [1]; 33.5 nM in assay [2]; 6420 nM at PARP1; 1910 nM in assay [3]; 1060 nM on PARP2. Further, the concentration for a half-maximal effect (EC50) in assay [4] (SW480, 24 h) was determined as 3880 nM.
`O=C(CCSCc1nc2ccccc2c(=O)[nH]1)N1CCC(c2nnc(-c3ccc(F)cc3)o2)CC1` [Example 93, 2-(((3-(4-(5-(4-fluorophenyl)-1,3,4-oxadiazol-2-yl)-1-piperidinyl)-3-oxopropyl)sulfanyl)methyl)-4(3H)-quinazolinone]: the IC50 in assay [1] is 85.1 nM; in assay [2] (400 nM NAD, 60 minutes at RT), 95.2 nM; against PARP1 it was 8290 nM; in assay [3], 1200 nM; against PARP2, above 170000 nM. In addition, the EC50 in assay [4] (SW480 cells, 24 hours) was 1230 nM.
On to `O=C(CCc1nc2ccccc2c(=O)[nH]1)N[C@H]1CC[C@H](n2c(=O)[nH]c3cc(Cl)ccc32)CC1` [Example 85, N-((1r,4r)-4-(5-chloro-2-oxo-2,3-dihydro-1H-benzo[d]imidazol-1-yl)cyclohexyl)-3-(4-oxo-3,4-dihydroquinazolin-2-yl)propanamide], for which the IC50 is 0.227 nM in assay [1]; 0.524 nM in assay [2] (400 nM NAD, 60 minutes at RT); above 85000 nM on PARP1; 14.1 nM in assay [3]; 470 nM against PARP2. In addition, in assay [4] (SW480 cells, 24 hours), the half-maximal effective concentration (EC50) was determined as 59.7 nM.
Consider `N#Cc1cccc2c1[nH]c(=O)n2C1CCN(C(=O)CCCc2nc3ccccc3c(=O)[nH]2)CC1` [Example 61, 2-oxo-1-(1-(4-(4-oxo-3,4-dihydro-2-quinazolinyl)butanoyl)-4-piperidinyl)-2,3-dihydro-1H-benzimidazole-4-carbonitrile], for which the IC50 in assay [1] came to 0.206 nM; in assay [2] (400 nM NAD, 60 minutes at RT) it was 0.873 nM; against PARP1, 464 nM; in assay [3], 302 nM; against PARP2, 349 nM. In addition, the EC50 in assay [4] (SW480 cells, 24 hours) worked out at 217 nM.
In the case of `Cc1ccc2c(c1)[nH]c(=O)n2C1CCN(C(=O)CCCc2nc3ccccc3c(=O)[nH]2)CC1` [Example 11, 2-(4-(4-(5-methyl-2-oxo-2,3-dihydro-1H-benzimidazol-1-yl)-1-piperidinyl)-4-oxobutyl)-4(3H)-quinazolinone], the IC50 was 1.6 nM in assay [1]; 2.76 nM in assay [2] (400 nM NAD, 60 minutes at RT); 867 nM against PARP1; 157 nM in assay [3]; 103 nM against PARP2. In addition, the EC50 in assay [4] (SW480 cells, 24 hours) was 247 nM.
As for `O=C(CCCc1nc2ccccc2c(=O)[nH]1)N1CCC(c2nnc(-c3ccncc3)o2)CC1` [Example 19, 2-(4-oxo-4-(4-(5-(4-pyridinyl)-1,3,4-oxadiazol-2-yl)-1-piperidinyl)butyl)-4(3H)-quinazolinone], the IC50 in assay [1] was determined as 4.86 nM; in assay [2] (400 nM NAD, 60 minutes at RT) it was 15 nM; at PARP1, 4920 nM; in assay [3], 248 nM; at PARP2, 1120 nM. For the same molecule, the EC50 in assay [4] (SW480 cells, 24 hours) was found to be 291 nM.
Consider `O=C(CCCc1nc2ccccc2c(=O)[nH]1)N1CCC(c2nnc(-c3cccnc3)o2)CC1` [Example 13, 2-(4-oxo-4-(4-(5-(3-pyridinyl)-1,3,4-oxadiazol-2-yl)-1-piperidinyl)butyl)-4(3H)-quinazolinone], for which the IC50 in assay [1] is 6.54 nM; in assay [2] (400 nM NAD, 60 minutes at RT), 42.8 nM; on PARP1 it was 7090 nM; in assay [3], 358 nM; on PARP2, 1240 nM. In assay [4] (SW480 cells, 24 hours), the EC50 turned out to be 461 nM.
Regarding `N#Cc1ccccc1O[C@H]1CC[C@H](NC(=O)CCCc2nc3ccccc3c(=O)[nH]2)CC1` [Example 57, N-(trans-4-(2-cyanophenoxy)cyclohexyl)-4-(4-oxo-3,4-dihydro-2-quinazolinyl)butanamide], the 50% inhibitory concentration (IC50) in assay [1] was determined as 12.5 nM; in assay [2] (400 nM NAD, 60 minutes at RT) it was 31.2 nM; on PARP1, 5960 nM; in assay [3], 510 nM; on PARP2, 905 nM. Further, the EC50 in assay [4] (SW480 cells, 24 hours) was 1710 nM.
Consider `N#Cc1cccc(-c2nnc(C3CCN(C(=O)CCCc4nc5ccccc5c(=O)[nH]4)CC3)o2)c1` [Example 20, 3-(5-(1-(4-(4-oxo-3,4-dihydroquinazolin-2-yl)butanoyl)piperidin-4-yl)-1,3,4-oxadiazol-2-yl)benzonitrile], for which the IC50 in assay [1] stood at 3.19 nM; in assay [2] (400 nM NAD, 60 minutes at RT) it was 11.3 nM; against PARP1 it was 2850 nM; in assay [3] it was 151 nM; at PARP2, 370 nM. Moreover, the EC50 in assay [4] (SW480 cells, 24 hours) was 166 nM.
With `O=C(CCSCc1nc2ccccc2c(=O)[nH]1)N[C@H]1CC[C@H](c2nnc(-c3ccccc3)o2)CC1` [Example 92, 3-(((4-oxo-3,4-dihydro-2-quinazolinyl)methyl)sulfanyl)-N-(trans-4-(5-phenyl-1,3,4-oxadiazol-2-yl)cyclohexyl)propanamide], the concentration for half-maximal inhibition (IC50) in assay [1] was 4.44 nM; in assay [2] (400 nM NAD, 60 minutes at RT), 15.8 nM; at PARP1 it was 2270 nM; in assay [3] it was 145 nM; on PARP2, 2420 nM. The EC50 in assay [4] (SW480 cells, 24 hours) is 287 nM.
Take `N#Cc1cc(O[C@H]2CC[C@H](NC(=O)CCCc3nc4ccccc4c(=O)[nH]3)CC2)ccc1Cl` [Example 63, N-(trans-4-(4-chloro-3-cyanophenoxy)cyclohexyl)-4-(4-oxo-3,4-dihydro-2-quinazolinyl)butanamide]: the IC50 in assay [1] amounted to 0.653 nM; in assay [2] (400 nM NAD, 60 minutes at RT), 2.33 nM; at PARP1 it was 586 nM; in assay [3], 211 nM; on PARP2, 802 nM. Besides, the 50% effective concentration (EC50) in assay [4] (SW480 cells, 24 hours) was found to be 270 nM.
